In patent EP4563146A1 (IRBM S.P.A., priority 2023, dated 2025):

Tested on: ZIKV replicon
Assay: ZIKV replication inhibition assay (NanoLuc replicon in Vero cells)
Conditions: Zika virus, Vero, 72 h, read-out: ZIKA Cell_Nanoluc

`O=C([N-]c1c[n+](Cc2ccccn2)no1)Nc1cc(NC(=O)C2CC(Cc3ccccc3)C2)cc(C(F)(F)F)c1` (stereo not drawn) [Example 68] and `O=C([N-]c1c[n+](Cc2ccccn2)no1)Nc1cc(NC(=O)C2Cc3ccccc32)cc(C(F)(F)F)c1` (stereo not drawn) [Example 47] fall in the same range of EC50: 1 to 20 µM for the first, 1 to 20 µM for the second.

`O=C([N-]c1c[n+](Cc2ccccn2)no1)Nc1cc(NC(=O)C23CCC(O)(CC2)C3)cc(C(F)(F)F)c1` [Example 66] and `O=C([N-]c1c[n+](Cc2ccccn2)no1)Nc1cc(NC(=O)C2CN(C3CC3)C2)cc(C(F)(F)F)c1` [Example 77] cannot be ordered by EC50: > 20 µM for the first, > 20 µM for the second.

Compared with `O=C([N-]c1c[n+](Cc2ccccn2)no1)Nc1cc(NC(=O)C2CS(=O)(=O)CCO2)cc(C(F)(F)F)c1` (stereo not drawn) [Example 88], `O=C([N-]c1c[n+](Cc2ccccn2)no1)Nc1cc(NC(=O)c2ccon2)cc(C(F)(F)F)c1` [Example 44] is lower in EC50: > 20 µM for the first, 1 to 20 µM for the second. The second is the more potent here.

`O=C([N-]c1c[n+](Cc2ccccn2)no1)Nc1cc(NC(=O)c2cccc(Oc3ccccc3)c2)cc(C(F)(F)F)c1` [Example 31] and `O=C(C#Cc1ccccc1)Nc1cc(NC(=O)[N-]c2c[n+](Cc3ccccn3)no2)cc(C(F)(F)F)c1` [Example 46] fall in the same range of EC50: 1 to 20 µM for the first, 1 to 20 µM for the second.

`COc1ncc(-c2ccc(C[n+]3cc([N-]C(=O)Nc4cc(NC(C)=O)cc(C(F)(F)F)c4)on3)cc2)c(C)n1` [Example 11] and `CC(C)n1ccc(C(=O)Nc2cc(NC(=O)[N-]c3c[n+](Cc4ccccn4)no3)cc(C(F)(F)F)c2)n1` [Example 48] fall in the same range of EC50: 1 to 20 µM for the first, 1 to 20 µM for the second.

`O=C([N-]c1c[n+](C[C@H]2CC[C@H](NCC(F)(F)F)CC2)no1)Nc1cc(N2CCC(c3ccccc3)C2=O)cc(C(F)(F)F)c1` (stereo partly drawn) [Example 137, ((3-(2-Oxo-3-phenylpyrrolidin-1-yl)-5-(trifluoromethyl)phenyl)carbamoyl)(3-(((1R,4R)-4-((2,2,2-trifluoroethyl)amino)-cyclohexyl)methyl)-1,2,3-oxadiazol-3-ium-5-yl)amide] and `O=C([N-]c1c[n+](C[C@H]2CC[C@@H](NCC(F)(F)F)CC2)no1)Nc1cc(N2CCC(c3ccccc3)C2=O)cc(C(F)(F)F)c1` (stereo partly drawn) [Example 136, ((3-(2-Oxo-3-phenylpyrrolidin-1-yl)-5-(trifluoromethyl)phenyl)carbamoyl)(3-(((1s,4s)-4-((2,2,2-trifluoroethyl)amino)cyclohexyl)methyl)-1,2,3-oxadiazol-3-ium-5-yl)amide] fall in the same range of EC50: 0.1 to 1 µM for the first, 0.1 to 1 µM for the second.

`N#Cc1ccc2nc(C(=O)Nc3cc(NC(=O)[N-]c4c[n+](Cc5ccccn5)no4)cc(C(F)(F)F)c3)cn2c1` [Example 37] and `O=C([N-]c1c[n+](Cc2ccccn2)no1)Nc1cc(NC(=O)c2ccc(CN3CCOCC3)o2)cc(C(F)(F)F)c1` [Example 30] fall in the same range of EC50: 1 to 20 µM for the first, 1 to 20 µM for the second.

Compared with `NCC12CC(C[n+]3cc([N-]C(=O)Nc4cc(NC(=O)Cc5ccccc5)cc(C(F)(F)F)c4)on3)(C1)C2` [Example 103], `CN1CCCCC1C[n+]1cc([N-]C(=O)Nc2cc(NC(=O)Cc3ccccc3)cc(C3CC3)c2)on1` (stereo not drawn) [Example 127] is lower in EC50: > 20 µM for the first, 1 to 20 µM for the second.

In the case of `Cn1cnnc1COCC(=O)Nc1cc(NC(=O)[N-]c2c[n+](Cc3ccccn3)no2)cc(C(F)(F)F)c1` [Example 72], the EC50 is reported as > 20 µM.

Same assay, conditions: Zika virus, Vero, 72 h, read-out: ZIKA Cell_Nanoluc, Vero cells with stable ZIKV replicon, 72 h, Nano-Glo readout

First: O=C(Cc1ccccc1)Nc1cc(NC(=O)[N-]c2c[n+](CC3CNCCCO3)no2)cc(C(F)(F)F)c1 (stereo not drawn) [Example 115, (3-((1,4-oxazepan-2-yl)methyl)-1,2,3-oxadiazol-3-ium-5-yl)((3-(2-phenylacetamido)-5-(trifluoromethyl)phenyl)carbamoyl)amide]
Second: O=C(Cc1ccccc1)Nc1cc(NC(=O)[N-]c2c[n+](CC3CCCNC3)no2)cc(C(F)(F)F)c1 (stereo not drawn) [Example 110, ((3-(2-Phenylacetamido)-5-(trifluoromethyl)phenyl)carbamoyl)(3-(piperidin-3-ylmethyl)-1,2,3-oxadiazol-3-ium-5-yl)amide]
The EC50 of the first is lower: 1 to 20 µM for the first, > 20 µM for the second.

`CN1CCC([n+]2cc([N-]C(=O)Nc3cc(NC(=O)Cc4ccccc4)cc(C(F)(F)F)c3)on2)CC1` [Example 100, (3-(1-Methylpiperidin-4-yl)-1,2,3-oxadiazol-3-ium-5-yl)((3-(2-phenylacetamido)-5-(trifluoromethyl)phenyl)carbamoyl)amide] and `CN1CCC(C[n+]2cc([N-]C(=O)Nc3cc(NC(=O)Cc4ccccc4)cc(C(F)(F)F)c3)on2)CC1` [Example 106, (3-((1-Methylpiperidin-4-yl)methyl)-1,2,3-oxadiazol-3-ium-5-yl)((3-(2-phenylacetamido)-5-(trifluoromethyl)phenyl)carbamoyl)amide] fall in the same range of EC50: 1 to 20 µM for the first, 1 to 20 µM for the second.

First: COc1ncc(-c2ccc(C[n+]3cc([N-]C(=O)Nc4cc(NC(=O)Cc5ccccc5Cl)cc(C(F)(F)F)c4)on3)cc2)c(C)n1 [Example 21, ((3-(2-(2-Chlorophenyl)acetamido)-5-(trifluoromethyl)phenyl)carbamoyl)(3-(4-(2-methoxy-4-methylpyrimidin-5-yl)benzyl)-1,2,3-oxadiazol-3-ium-5-yl)amide]
Second: O=C(Cc1ccccc1)Nc1cc(NC(=O)[N-]c2c[n+](Cc3ccc(CO)cc3)no2)cc(C(F)(F)F)c1 [Example 102, (3-(4-(Hydroxymethyl)benzyl)-1,2,3-oxadiazol-3-ium-5-yl)((3-(2-phenylacetamido)-5-(trifluoromethyl)phenyl)carbamoyl)amide]
The EC50 of the first is lower: 0.1 to 1 µM for the first, 1 to 20 µM for the second. The first is the more potent here.

`O=C(Cc1ccccc1)Nc1cc(NC(=O)[N-]c2c[n+](CC3CCN(CCO)CC3)no2)cc(C(F)(F)F)c1` [Example 141, (3-((1-(2-Hydroxyethyl)piperidin-4-yl)methyl)-1,2,3-oxadiazol-3-ium-5-yl)((3-(2-phenylacetamido)-5-(trifluoromethyl)phenyl)-carbamoyl)amide] and `CN1CCCC(C[n+]2cc([N-]C(=O)Nc3cc(NC(=O)Cc4ccccc4)cc(C(F)(F)F)c3)on2)C1` (stereo not drawn) [Example 117, (3-((1-Methylpiperidin-3-yl)methyl)-1,2,3-oxadiazol-3-ium-5-yl)((3-(2-phenylacetamido)-5-(trifluoromethyl)phenyl)carbamoyl)amide] fall in the same range of EC50: 1 to 20 µM for the first, 1 to 20 µM for the second.

First: O=C(Cc1ccccc1)Nc1cc(NC(=O)[N-]c2c[n+](Cc3ccc(-c4cccc5c4CNC5)cn3)no2)cc(C(F)(F)F)c1 [Example 14, (3-((5-(Isoindolin-4-yl)pyridin-2-yl)methyl)-1,2,3-oxadiazol-3-ium-5-yl)((3-(2-phenylacetamido)-5-(trifluoromethyl)phenyl)carbamoyl)amide]
Second: O=C(Cc1ccccc1)Nc1cc(NC(=O)[N-]c2c[n+](Cc3ccc(C(=O)O)cc3)no2)cc(C(F)(F)F)c1 [Example 101, (3-(4-Carboxybenzyl)-1,2,3-oxadiazol-3-ium-5-yl)((3-(2-phenylacetamido)-5-(trifluoromethyl)phenyl)carbamoyl)amide]
The EC50 of the first is lower: 1 to 20 µM for the first, > 20 µM for the second. The first is the more potent here.

`O=C(Cc1ccccc1)Nc1cc(NC(=O)[N-]c2c[n+](Cc3ccccc3)no2)cc(C(F)(F)F)c1` [Example 28, (3-Benzyl-1,2,3-oxadiazol-3-ium-5-yl)((3-(2-phenylacetamido)-5-(trifluoro-methyl)phenyl)carbamoyl)amide] and `O=C(Cc1ccccc1)Nc1cc(NC(=O)[N-]c2c[n+](Cc3cccc(CN4C(=O)c5ccccc5C4=O)c3)no2)cc(C(F)(F)F)c1` [Example 107, (3-(3-((1,3-Dioxoisoindolin-2-yl)methyl)benzyl)-1,2,3-oxadiazol-3-ium-5-yl)((3-(2-phenylacetamido)-5-(trifluoromethyl)phenyl)carbamoyl)amide] fall in the same range of EC50: 1 to 20 µM for the first, 1 to 20 µM for the second.

`O=C(CC1CC2CC1C2)Nc1cc(NC(=O)[N-]c2c[n+](Cc3ccccn3)no2)cc(C(F)(F)F)c1` (stereo not drawn) [Example 63, ((3-(2-(Bicyclo[2.1.1]hexan-2-yl)acetamido)-5-(trifluoromethyl)phenyl)carbamoyl)(3-(pyridin-2-ylmethyl)-1,2,3-oxadiazol-3-ium-5-yl)amide] and `Cc1nc(CC(=O)Nc2cc(NC(=O)[N-]c3c[n+](Cc4ccccn4)no3)cc(C(F)(F)F)c2)cs1` [Example 41, ((3-(2-(2-Methylthiazol-4-yl)acetamido)-5-(trifluoromethyl)phenyl)-carbamoyl)(3-(pyridin-2-ylmethyl)-1,2,3-oxadiazol-3-ium-5-yl)amide] fall in the same range of EC50: 1 to 20 µM for the first, 1 to 20 µM for the second.

`O=C(Cc1ccc(=O)[nH]c1)Nc1cc(NC(=O)[N-]c2c[n+](Cc3ccccn3)no2)cc(C(F)(F)F)c1` [Example 123, ((3-(2-(6-Oxo-1,6-dihydropyridin-3-yl)acetamido)-5-(trifluoromethyl)phenyl)-carbamoyl)(3-(pyridin-2-ylmethyl)-1,2,3-oxadiazol-3-ium-5-yl)amide] and `Cc1cc(NC(=O)Cc2ccccc2)cc(NC(=O)[N-]c2c[n+](Cc3ccccn3)no2)c1` [Example 57, ((3-Methyl-5-(2-phenylacetamido)phenyl)carbamoyl)(3-(pyridin-2-ylmethyl)-1,2,3-oxadiazol-3-ium-5-yl)amide] cannot be ordered by EC50: > 20 µM for the first, > 20 µM for the second.

First: COc1ncc(-c2ccc(C[n+]3cc([N-]C(=O)Nc4cc(NS(=O)(=O)CC5CCCCC5)cc(C(F)(F)F)c4)on3)cc2)c(C)n1 [Example 2, ((3-((Cyclohexylmethyl)sulfonamido)-5-(trifluoromethyl)phenyl)carbamoyl)(3-(4-(2-methoxy-4-methylpyrimidin-5-yl)benzyl)-1,2,3-oxadiazol-3-ium-5-yl)amide]
Second: CN1CCCCC1C[n+]1cc([N-]C(=O)Nc2cc(NC(=O)Cc3ccccc3)cc(C(F)(F)F)c2)on1 (stereo not drawn) [Example 105, (3-((1-Methylpiperidin-2-yl)methyl)-1,2,3-oxadiazol-3-ium-5-yl)((3-(2-phenylacetamido)-5-(trifluoromethyl)phenyl)carbamoyl)amide]
The EC50 of the first is higher: > 20 µM for the first, 0.1 to 1 µM for the second.

With `O=C([N-]c1c[n+](Cc2ccccn2)no1)Nc1cc(NC(=O)C23CC(C(=O)O)(C2)C3)cc(C(F)(F)F)c1` [Example 52, ((3-(3-Carboxybicyclo[1.1.1]pentane-1-carboxamido)-5-(trifluoromethyl)phenyl)-carbamoyl)(3-(pyridin-2-ylmethyl)-1,2,3-oxadiazol-3-ium-5-yl)amide] the EC50 was 1 to 20 µM.
